Each block holds one compound with its values, some of them ahead of it.
Legend:
IL-8 = IL-8 release, nickel-induced allergy in human dermal microvascular endothelial cells (ELISA); type: cell-based; details: Homo sapiens, Endothelial cell; co-treatment with NiSO4, HDMECs; read-out: IC50 of IL-8 inhibition
Description: Dermal Microvascular endothelial cells of human origin were cultured in vitro using standard conditions (37° C., 95% v/v air, 5% v/v CO2). Human cells were selected as relevant to cell types within skin tissues for this development program. Cell culture methods are commonly used in non-clinical studies conducted on pharmaceutical products. […] Cells were cultured until the third and fourth passage and then acclimated for 24 hours before Nickel induction and dosing procedures. Cell treatment groups were identified using appropriate 96-well plates. The test and control articles were administered to medium containing 1 mM NiSO4 in triplicates. The negative control group received vehicle-only (0.1% v/v final) dose. A fixed 0.1 μL/well from 1000× stock dose volume was administered to 100 μL of media to each cell culture well on Day 2 and incubated for 6 hours at 37 degrees. These cell cultures were also utilized to determine the concentrations of test agent that were non-toxic after 24 hours of incubation.
Assay for Interleukin-8: Test material was applied in vitro for the ability to inhibit pro-inflammatory (IL-8) cytokine secretion by cultured HDMECs co-treated with Nickel (NiSO4). Clobetasol propionate was tested as positive control material for anti-inflammatory activity. The pro-inflammatory cytokine (IL-8) was quantified by enzyme-linked immunosorbent assay (ELISA) after inflammatory induction and incubation with test and control materials. Interleukin-8 levels in cell culture medium are markers of inflammation signaling by endothelial cells present in skin microvascular tissue in response to irritation. Interleukin-8 (IL-8) levels were assessed using BD Biosciences OptEIA™ Human IL-8 ELISA Set kit (Cat. No. 555244) and Reagent Set B (Cat. No. 550534) according to the manufacture's specifications. Absorbance was measured at 450 nm using plate reader and interleukin-8 levels were calculated from a standard curve.

[1] = Antioxidant capacity (ABTS/metmyoglobin assay); type: biochemical; details: OD 750 nm, 15 minutes after hydrogen peroxide
Description: Antioxidant capacity: The purpose of this study was to evaluate the overall antioxidant capacity of KLS-13022 for the ability to inhibit the oxidation of ABTS. (2,2′-Azino-di-[3-ethylbenzthiazoline sulphonate]) to ABTS.^+ by metmyoglobin. Ascorbic acid (Vitamin C) was used as positive antioxidant control in the assay. The testing involved the suppression of optical density (OD) at 750 nm to a degree, which is proportional to an effective oxidation inhibition. Neat solutions were prepared for materials formulated in HPLC-grade water (ascorbic acid) or 200-proof ethanol (KLS-13022). Serial dilutions were prepared for each material and mixed with metmyoglobin enzyme in assay buffer solution. All samples were compared to vehicle-only treated samples used as negative oxidation inhibition. Optical density changes at 750 nm were evaluated 15 minutes after addition of hydrogen peroxide to each sample. Average absorbance was calculated and plotted for each sample concentration. Effective antioxidant inhibition activity based on the change of absorbance of blank (vehicle-only) sample (no material added). […] The Antioxidant assay kit was obtained from Cayman Chemical Co. (Ann Arbor, Mich.). The assay consisted in the evaluation of the overall antioxidant capacity of test materials for the ability to inhibit the oxidation of ABTS. to ABTS.^+ by metmyoglobin. […]

[2] = test system: human 3D cornea-like EPIOCULAR; experiment: Eye irritation, EPIOCULAR reconstructed cornea-like model, OECD 492 (MTT); type: cell-based; details: KLS-13022 up to 3% w/v in 60:40 ethanol:water; OECD 492
Description: Ocular irritancy: The purpose of this study was to evaluate any potential ocular irritation activity of KLS-13022 formulations compared to vehicle-only treated tissues in vitro on human 3D cornea-like EPIOCULAR by topical application according to OECD 492 protocol. Test formulations of KLS-13022 up to 3% w/v in 60:40 ethanol:water vehicle were prepared fresh before use. EPIOCULAR tissues were acclimated before treatments for 24 hours and later treated topically for 30 minutes with KLS-13022 (0.01, 0.1, 0.3 1, 3% w/v). Methyl acetate was used as positive eye irritant control. Tissue viability levels were measured by MTT reduction assay method after material treatments. The levels of tissue viability after each material treatment was compared to vehicle control group to determine any potential ocular irritation activity.
Average levels of tissue viability were calculated for each treatment group. According to OECD 492 protocol, predicted positive eye irritation activities were determined when obtaining <60% tissue viability. […] Primary cornea-like inserts were used from human origin and purchased from MatTek (Ashland, Mass.). […] Tissues were cultured with standard conditions (37° C., 95% v/v air, 5% v/v CO2) and acclimated for 18+3 hours before dosing procedures.

IC50 (IL-8): ~0.5 µM
SMILES: CCC(=O)O[C@]1(C(=O)CCl)[C@@H](C)C[C@H]2[C@@H]3CCC4=CC(=O)C=C[C@]4(C)[C@@]3(F)[C@@H](O)C[C@@]21C [Clobetasol propionate, reference compound]

EC50 [1]: 39.7 µM
SMILES: O=C1O[C@H]([C@@H](O)CO)C(O)=C1O [ascorbic acid, reference compound]

SMILES: COC(C)=O [methyl acetate, Methyl acetate, reference compound]
ocular irritancy potential [2]: strong eye irritant
